This is an account of results in article PMC5249144, “T Cell Subset and Stimulation Strength-Dependent Modulation of T Cell Activation by Kv1.3 Blockers” (PLoS ONE, 2017).

In assay [1] the test system is thapsigargin stimulated human blood. In words: Thapsigargin stimulated whole blood IL-2 production. The format is cell-based. The note with it: whole blood diluted with equal volume IMDM, 20 hours. The procedure: Heparinized human blood was diluted with an equal volume of IMDM medium (Life Technologies) supplemented with 2% normal human A/B serum and plated at 200μl/well in 96-well plates for thapsigargin (Alomone) stimulation. CD4 T cells were plated at 5 x 10^5 cells/well in 96-well plates with 200μl medium/well. Blood or T cell samples were pre-treated with blockers or inhibitors for 30 minutes prior to stimulation with thapsigargin at 10μM or other concentrations as indicated for 20 hours. Cytokines in culture supernatants were measured as described in cytokine detection section.
(§1) Cytokines in supernatants collected from blood or T cell cultures were measured with ELISA or electrochemiluminescent assays. IL-2 was measured by ELISA using the human IL-2 Quantikine Kit (R&D Systems). Other cytokines were detected using multiplex human cytokine electro-chemiluminescent kit (Meso Scale Discovery).

Assay [2] relates to PBMC from allergic rhinitis patients. The format is cell-based, human. The procedure: T cells were cultured in 96-well plates (Thermo Scientific) with 200μl medium/well. Culture medium was RPMI-1640 medium supplemented with 2% human A/B serum (Valley Biomedical Prod & Srv Inc.), 2 mM glutamine, 1mM sodium pyruvate, 10mM HEPES, 1mM MEM nonessential amino acid solution, and 100 U/ml each of penicillin G and streptomycin (all culture reagents from Life Technologies except for human serum). T cells were pre-treated with Kv1.3 blockers and other inhibitors for 30 minutes before stimulation. All assays were conducted with samples in duplicates or triplicates.
For T cell pan-activation with beads coated with anti-CD3 and anti-CD28 (eBioscience), T cells at 2 x 10^5 cells/well in 96-well flat-bottom plates were stimulated overnight with anti-CD3 and anti-CD28 coated beads (Miltenyi Biotec) at 2:1 bead/cell ratio or as indicated. For T cell pan-activation with anti-CD3, T cells at 5 x 10^4 cells/well in 96-well U-bottom plates were stimulated for 2 days with 1ng/ml of anti-CD3 in the presence of mitomycin C treated autologous PBMC at 1:1 T cell/PBMC ratio. […]
(§2) Proliferation of T cells was measured by overnight pulsing with 1μCi/well of ^3H-thymidine (Perkin Elmer). […] Filter plates were soaked with scintillant (Perkin Elmer) and radioactivity was counted using a Topcount (Packard).

Another assay deals with human CD4 T cell subsets. The format is cell-based.
From the text: (§3) Human PBMC were purified from donor blood by Ficoll-Paque (GE Healthcare) density centrifugation. CD4 or CD8 T cells were purified from human PBMC by negative selection using human CD4 or CD8 T cell isolation kit (Miltenyi Biotec) respectively. Naïve or memory CD4 T cells were isolated from CD4 T cells by negative selection using human naïve or memory CD4 T cell isolation kit (Miltenyi Biotec) respectively. Central and effector memory CD4 T cells were separated from memory CD4 T cells using biotinylated anti-CCR7 (BD Biosciences) and streptavidin coated magnetic beads (Miltenyie Biotec). Cells after treatment with antibodies and magnetic beads were purified with autoMACS (Miltenyi Biotec).
(§4) T cells were cultured in 96-well plates (Thermo Scientific) with 200μl medium/well. […]
as §2
In order to further understand the activity profile of Kv1.3 blockers on T cells, we compared the effects of Kv1.3 blockers on primary naïve, central memory and effector memory CD4 T cells. […] Purified T cells were activated with anti-CD3 in the presence of mitomycin C treated PBMC and the effects of Kv1.3 blockers on T cell proliferation were monitored and compared to cyclosporine A and BTP2.

For assay [3], the system named is human CD4 and CD8 T cells. It is filed as cell-based.
From the text: as §3, §4, §2, §1

Assay [4] deals with human CD4 T cells. In words: Calcium flux in CD4 T cells, anti-CD3/CD28. The format is cell-based. Conditions: BTP2 1μM. The protocol: (§5) T cells were loaded with 3μM each of Fluo4 and Fura red (Molecular Probes, Invitrogen) for 45 minutes in the dark at 37°C in cell loading medium (DMEM medium with 10mM HEPES and 10% fetal calf serum) in the presence of 0.01% pluronic acid (Molecular Probes). Dye-loaded cells were rinsed twice with loading medium, incubated with 10μg/ml mouse anti-CD3 (BD Biosciences) and 2.5μg/ml mouse anti-CD28 (BD Biosciences) for 30 minutes at room temperature, and then rinsed again with loading medium to be ready for calcium flux studies. Cells were acquired with FACS LSRII and cell activation was initiated by addition of goat anti-mouse antibody (Jackson ImmunoResearch) to final 10μg/ml. CD4 T cells were also stimulated with 1μM thapsigargin. Kinetics of calcium flux in activated cells were monitored by reading the calcium dependent Fluo4 emission signals at 530nm compared to non-specific Fura red signals at 685nm. Calcium flux was calculated as ratio of Fluo4 to Fura red emission signals.

Assay [5] has as its system human CD4 T cells. The assay can be described thus: Calcium flux in CD4 T cells, thapsigargin. It is filed as cell-based. The note with it: BTP2 1μM, thapsigargin 1μM, monitored for 10 minutes. The protocol: as §5
On the technique in general: Calcium assays in cells follow changes in intracellular calcium, usually with a dye or a luminescent sensor.

For the next assay, the system named is Kv1.3. The note with it: ref [5], [20]–[23]; cited from earlier work.

Where two headings read alike, the source gives them in different places.

For the molecule cyclosporine A, the “inhibition of IL-2 release from thapsigargin stimulated whole blood, in words” value in assay [1] is recorded as “fully efficacious”. In addition, the “ragweed proliferative response, in words” value in assay [2] is on record as “reduced the proliferative response to its basal level”. The “inhibition of proliferation of T cell subsets, in words” value in the assay with human CD4 T cell subsets is given as “complete inhibition”. Further, in assay [3], the “block of T cell activation” value is approximately 100% and the “inhibition of T cell activation, in words” value is reported as “fully inhibits T cell activation in all stimulation conditions”.

As for `Cc1nnsc1C(=O)Nc1ccc(-n2nc(C(F)(F)F)cc2C(F)(F)F)cc1` [BTP2], the “inhibition of IL-2 release from thapsigargin stimulated whole blood, in words” value in assay [1] was “fully efficacious”. The “reduction of calcium flux, in words” value in the assay on human CD4 T cells [4] (anti-CD3/CD28, monitored for 10 minutes) is “significantly reduced the calcium flux levels”; in the assay with human CD4 T cells [5], “significantly reduced the calcium flux levels”. Moreover, the “calcium flux by T cell population, in words” value in the assay with human CD4 T cells [4] (ShK 1nM, activated CD4 T cells, Fig 4C (anti-CD3/CD28 or thapsigargin)) is “reduced calcium flux in all activated T cells”. Also, the “inhibition of proliferation of T cell subsets, in words” value with human CD4 T cell subsets (maximal efficacious concentrations, naïve, Tcm, Tem CD4 T cells, anti-CD3/PBMC) is given as “complete inhibition”.

For the molecule `CC[C@H](C)[C@@H]1NC(=O)[C@@H]2CSSC[C@@H]3NC(=O)[C@H](CCCCN)NC(=O)CNC(=O)[C@H](CC(N)=O)NC(=O)[C@H](CCSC)NC(=O)[C@H](CSSC[C@H](NC(=O)[C@H](CCCCN)NC(=O)[C@@H](NC(=O)[C@H](CC(=O)O)NC(=O)[C@@H](NC(=O)[C@@H]4CCCN4C(=O)[C@@H](NC(=O)CN)C(C)C)[C@@H](C)O)C(C)C)C(=O)N[C@@H](CCCNC(=N)N)C(=O)NCC(=O)N[C@@H](CO)C(=O)N4CCC[C@H]4C(=O)N[C@@H](CCC(N)=O)C(=O)N2)NC(=O)[C@H](CCCCN)NC(=O)CNC(=O)[C@H](Cc2ccccc2)NC(=O)[C@H](CCCNC(=N)N)NC(=O)[C@H](CCSC)NC(=O)CNC(=O)[C@H](C)NC(=O)[C@H](CC(=O)O)NC(=O)[C@H](CCCCN)NC(=O)[C@H](CSSC[C@@H](C(=O)N[C@H](C(=O)N2CCC[C@H]2C(=O)N[C@@H](CCCCN)C(=O)O)[C@@H](C)O)NC(=O)[C@H](Cc2c[nH]cn2)NC3=O)NC(=O)[C@@H]2CCCN2C(=O)[C@H](CCC(N)=O)NC1=O` [OdK2], the “Kv1.3 block, in words” value in the assay with Kv1.3 is “potent blockers of Kv1.3”.
